Data on 1 compound can be found in paper PMC4368888, “Preclinical to Clinical Translation of CNS Transporter Occupancy of TD-9855, a Novel Norepinephrine and Serotonin Reuptake Inhibitor” (International Journal of Neuropsychopharmacology, 2015).

Series [1] is described as follows: Safety and tolerability in Phase 1 PET study. The format is in vivo, human. Conditions: healthy males, single oral dose 4-20mg. The procedure: All adverse events (AEs) were assessed by the investigator and recorded in the case report form, including the dates of onset and resolution, severity, relationship to study drug, outcome, and action taken with study medication after the dosing of TD-9855 through the follow-up visit. Safety was assessed during the entire study by measurement of vital signs, laboratory tests, and evaluation of ECGs.

Series [2] is described as follows: Human plasma pharmacokinetics. The format is in vivo. To be noted: 20mg single oral dose, Day 1, n = 3. The procedure: Four 6mL samples were drawn at 2, 4, 6, and 24hr post TD-9855 dosing. Three additional 6mL samples were drawn prior to each PET scan and approximately 60 and 120min after the beginning of each PET scan. Plasma samples were analyzed for TD-9855 concentrations by a validated LC-MS/MS method. The lower limit of quantification for TD-9855 was 0.05ng/mL.

Series [3] concerns the target T1, NET (Homo sapiens, UniProt P23975). As to the kind of experiment: [3H]-nisoxetine equilibrium binding, HEK293-hNET membranes. More on the design: expressed in transfected cells; host or cells: HEK293 (HEK293-hNET), stably transfected. To be noted: mean (95% CI), 3 to 9 experiments, read-out: Transporter Binding: pKi NET (converted). From the text:
(§1) The in vitro pharmacology of TD-9855 (4-[2-(2, 4, 6-trifluorophenoxymethyl)phenyl]piperidine; Figure 1) at human recombinant and rat native monoamine transporters was characterized as described previously ([Tsuruda et al., 2010]; [Shen et al., 2013]). Radioligands were sourced commercially (Perkin Elmer Life Sciences or GE Healthcare Life Sciences). Briefly, membranes prepared from HEK293 (Human Embryonic Kidney 293) cells stably-transfected with human recombinant SERT (HEK293-hSERT), NET (HEK293-hNET), or DAT ([…]) were incubated for 1hr at 22°C in the absence, or presence, of TD-9855 and [^3H]-citalopram (1.0nM) for SERT, [^3H]-nisoxetine (2.0nM) for NET, and [^3H]-WIN35428 (3.0nM) for DAT in 50mM Tris-HCl, 120mM NaCl, 5mM KCl, 0.025% BSA, 100 μM ascorbic acid, pH 7.4. Rat cortical membrane preparations were incubated with [^3H]-citalopram (2.0nM) for SERT or [^3H]-nisoxetine (4.0nM) for NET for 1hr at 22°C. […] Binding and uptake assays were terminated by rapid filtration and radioactivity, determined by liquid scintillation spectroscopy.

The target of the next series is rat native NET (Rattus norvegicus, UniProt Q63380). As to the kind of experiment: [3H]-nisoxetine binding, rat cortical membranes. More on the design: at human recombinant and rat native monoamine transporters; from tissue. To be noted: mean (95% CI), 3 to 9 experiments, read-out: Transporter Binding: pKi NET (converted).
Description: as §1

For a further series, the target named is T2, human recombinant DAT (Homo sapiens, UniProt Q01959).
T2 construct: expressed in transfected cells; 'hDAT cells' for uptake
As to the kind of experiment: [3H]-DA uptake inhibition in hDAT cells. The series is classed as cell-based. To be noted: mean (95% CI), 3 to 9 experiments, read-out: Neurotransmitter Uptake Inhibition: pIC50 DAT (converted).
Description: as §1

Series [4] has as its target T1, NET. As to the kind of experiment: [3H]-NE uptake inhibition in HEK293-hNET cells. More on the design: expressed in transfected cells; host or cells: HEK293 (HEK293-hNET), stably transfected. The format is cell-based.
Description: as §1

In the next series the target is T3, rat native DAT (Rattus norvegicus, UniProt P23977).
T3 construct: at human recombinant and rat native monoamine transporters; from tissue; host or cells: rat striatal synaptosomes
As to the kind of experiment: [3H]-DA uptake inhibition in rat striatal synaptosomes. The format is biochemical. Conditions: mean (95% CI), 3 to 9 experiments, read-out: Neurotransmitter Uptake Inhibition: pIC50 DAT (converted).
Description: as §1

A short description of a further series: in vivo. Conditions: Sprague Dawley, rat, po. The procedure:
(§2) TD-9855 Rat Administration and Sampling — Rats (n = 6/timepoint/dose level) received a single oral dose of TD-9855 (0.3, 1, 5, 10, 30, and 60mg/kg) and were euthanized by decapitation at specified time points (0.5, 2, 4, 6, and 8hr for 5mg/kg dose level; 2hr for 0.3, 1, 10, 30, and 60mg/kg dose levels) post-administration. Spinal cords were dissected for ex vivo transporter occupancy and PK assessments from the same animals. The spinal cord was harvested by hydraulic extrusion using phosphate-buffered saline, and the lumbar segment dissected and frozen on dry ice. The remaining spinal cord segments were collected and homogenized in water (25% w/w) for PK analysis. All samples were stored at -80 °C until analysis.
(§3) Rat PK/PD Modeling — PK/PD parameters were estimated by a compartmental modeling approach (WinNonlin Version 5.0.1, Pharsight Corporation). One- and two-compartment PK models with first-order absorption and elimination were evaluated. The one-compartment model was selected. The pharmacodynamic model was an effect compartment Emax model linked directly to the central PK compartment (WinNonlin PK Model 3, PD Model 101). Selection of models was based upon best fit in terms of visual inspection, Akaike Information Criteria, and weighted residual sum of squares using the Gauss-Newton minimization method. The following parameters were estimated:
k01 (hr^-1): First-order absorption rate constant.
V/F (L/kg): Volume of the central compartment divided by oral bioavailability
k10 (hr^-1): Elimination rate constant from the central compartment

Another series addresses T4, SERT (Rattus norvegicus, UniProt P31652).
T4 construct: from tissue; host or cells: rat lumbar spinal cord after oral dosing
Briefly: Ex vivo SERT occupancy in rat spinal cord with PK/PD modeling. To be noted: estimate (% CV). Here is the method: as §2
A kinetic radioligand binding assay was used to determine NET and SERT occupancy in rat spinal cord, as described previously ([Bourdet et al., 2012]).
as §3
Emax (% occupancy): Maximal SERT or NET occupancy in spinal cord
keo (hr^-1): First-order equilibration rate constant between the central pharmacokinetic compartment and the pharmacodynamic effect compartment

The next series deals with P-gp. More on the design: method as in Theravance Biopharma US, Inc., data on file. Conditions: ref Theravance Biopharma US, Inc., data on file; cited from earlier work.

One may read the EC50 as the concentration giving half of the maximal effect.

T4 sequence (P31652 whole entry): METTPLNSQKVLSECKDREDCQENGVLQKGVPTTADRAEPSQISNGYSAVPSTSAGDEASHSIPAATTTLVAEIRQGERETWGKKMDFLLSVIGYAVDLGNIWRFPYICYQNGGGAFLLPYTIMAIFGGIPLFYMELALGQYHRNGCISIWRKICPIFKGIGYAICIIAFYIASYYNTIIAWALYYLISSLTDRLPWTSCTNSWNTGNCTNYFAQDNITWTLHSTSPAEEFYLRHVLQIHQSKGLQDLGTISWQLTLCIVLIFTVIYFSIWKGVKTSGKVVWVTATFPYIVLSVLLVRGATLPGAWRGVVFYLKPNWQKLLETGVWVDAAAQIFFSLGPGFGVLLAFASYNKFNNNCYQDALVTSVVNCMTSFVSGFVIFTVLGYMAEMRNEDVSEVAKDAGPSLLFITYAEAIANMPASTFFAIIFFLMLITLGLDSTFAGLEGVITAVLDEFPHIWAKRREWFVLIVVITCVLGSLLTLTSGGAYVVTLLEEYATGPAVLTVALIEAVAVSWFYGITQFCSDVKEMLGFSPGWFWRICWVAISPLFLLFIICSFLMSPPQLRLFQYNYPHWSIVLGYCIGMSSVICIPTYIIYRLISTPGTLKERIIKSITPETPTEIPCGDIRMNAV
T1 sequence (P23975 whole entry): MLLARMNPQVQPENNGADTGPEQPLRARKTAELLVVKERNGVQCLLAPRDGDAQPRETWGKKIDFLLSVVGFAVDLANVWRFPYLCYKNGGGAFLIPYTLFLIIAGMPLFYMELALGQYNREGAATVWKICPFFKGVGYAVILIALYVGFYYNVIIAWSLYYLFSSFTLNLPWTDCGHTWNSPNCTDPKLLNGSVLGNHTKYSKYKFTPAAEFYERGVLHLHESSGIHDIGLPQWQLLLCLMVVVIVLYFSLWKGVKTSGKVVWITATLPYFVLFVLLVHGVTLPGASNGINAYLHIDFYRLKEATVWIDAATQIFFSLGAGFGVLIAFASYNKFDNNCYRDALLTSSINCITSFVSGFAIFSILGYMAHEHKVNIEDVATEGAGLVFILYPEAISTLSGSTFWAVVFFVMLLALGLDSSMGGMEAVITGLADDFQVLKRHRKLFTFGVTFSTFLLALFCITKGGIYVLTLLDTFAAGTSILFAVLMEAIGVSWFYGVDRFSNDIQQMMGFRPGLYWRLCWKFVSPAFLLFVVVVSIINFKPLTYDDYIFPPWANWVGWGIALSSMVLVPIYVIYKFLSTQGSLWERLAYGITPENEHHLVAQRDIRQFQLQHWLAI
T3 sequence (P23977 whole entry): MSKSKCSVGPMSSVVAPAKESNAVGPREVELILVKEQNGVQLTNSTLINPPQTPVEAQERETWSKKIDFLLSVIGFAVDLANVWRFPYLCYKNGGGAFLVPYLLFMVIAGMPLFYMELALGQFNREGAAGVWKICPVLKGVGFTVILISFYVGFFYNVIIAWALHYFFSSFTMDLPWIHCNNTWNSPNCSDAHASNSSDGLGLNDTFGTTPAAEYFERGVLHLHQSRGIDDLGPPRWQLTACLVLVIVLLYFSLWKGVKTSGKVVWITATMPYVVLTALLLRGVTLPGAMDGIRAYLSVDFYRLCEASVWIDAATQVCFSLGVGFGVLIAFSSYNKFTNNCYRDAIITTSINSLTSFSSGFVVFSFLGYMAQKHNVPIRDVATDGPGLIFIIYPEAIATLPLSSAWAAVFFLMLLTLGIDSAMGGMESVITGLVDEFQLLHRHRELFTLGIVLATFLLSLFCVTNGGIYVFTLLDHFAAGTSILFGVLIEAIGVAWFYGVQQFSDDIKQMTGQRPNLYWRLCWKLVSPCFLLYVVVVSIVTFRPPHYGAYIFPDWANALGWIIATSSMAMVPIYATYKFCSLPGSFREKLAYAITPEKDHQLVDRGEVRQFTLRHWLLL
Chain of rat native NET (Q63380 1-617): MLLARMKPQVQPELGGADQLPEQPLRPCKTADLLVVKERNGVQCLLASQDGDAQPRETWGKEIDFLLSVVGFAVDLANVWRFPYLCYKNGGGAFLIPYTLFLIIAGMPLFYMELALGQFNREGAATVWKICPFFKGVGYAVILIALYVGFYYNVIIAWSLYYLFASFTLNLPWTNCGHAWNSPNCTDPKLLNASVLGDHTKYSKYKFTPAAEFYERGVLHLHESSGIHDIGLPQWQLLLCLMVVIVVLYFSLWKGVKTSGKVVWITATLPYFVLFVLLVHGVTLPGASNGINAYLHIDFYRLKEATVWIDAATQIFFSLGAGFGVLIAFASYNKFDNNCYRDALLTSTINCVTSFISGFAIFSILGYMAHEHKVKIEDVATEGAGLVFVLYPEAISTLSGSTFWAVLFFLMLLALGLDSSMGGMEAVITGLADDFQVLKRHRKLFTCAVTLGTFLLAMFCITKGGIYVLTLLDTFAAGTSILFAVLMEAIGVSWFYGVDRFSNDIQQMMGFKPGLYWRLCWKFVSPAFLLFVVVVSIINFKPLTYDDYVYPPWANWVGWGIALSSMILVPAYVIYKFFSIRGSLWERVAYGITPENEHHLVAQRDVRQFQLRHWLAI
T2 sequence (Q01959 whole entry): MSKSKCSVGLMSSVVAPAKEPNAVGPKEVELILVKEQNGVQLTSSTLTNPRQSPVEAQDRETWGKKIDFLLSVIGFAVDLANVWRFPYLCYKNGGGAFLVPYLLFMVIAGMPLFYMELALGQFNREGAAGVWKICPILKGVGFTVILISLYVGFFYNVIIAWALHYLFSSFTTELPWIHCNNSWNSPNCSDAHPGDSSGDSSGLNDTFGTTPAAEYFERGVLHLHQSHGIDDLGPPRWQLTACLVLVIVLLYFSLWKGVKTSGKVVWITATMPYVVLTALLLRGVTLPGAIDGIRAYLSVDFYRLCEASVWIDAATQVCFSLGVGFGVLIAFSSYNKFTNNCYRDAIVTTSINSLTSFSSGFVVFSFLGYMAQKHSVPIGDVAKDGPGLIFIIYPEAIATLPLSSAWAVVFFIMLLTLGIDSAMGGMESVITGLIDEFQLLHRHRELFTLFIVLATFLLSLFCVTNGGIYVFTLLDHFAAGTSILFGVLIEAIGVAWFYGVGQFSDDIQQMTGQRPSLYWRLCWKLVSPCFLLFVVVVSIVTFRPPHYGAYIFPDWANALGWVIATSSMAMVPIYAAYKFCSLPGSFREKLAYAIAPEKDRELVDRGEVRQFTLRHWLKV

Turning to `Fc1cc(F)c(OCc2ccccc2C2CCNCC2)c(F)c1` [TD-9855, 4-[2-(2,4,6-trifluorophenoxymethyl)phenyl]piperidine], in [1], the “clinical laboratory values, physical examination, vital signs, ECG” value was “No clinically significant abnormalities”; the “deaths and adverse events” value is “No deaths, severe AEs, or AEs occurred”; the overall tolerability entry was “well tolerated”. Further, in [2], the “mean plasma concentration at SERT scan” value turned out to be 6.35 ng/mL. Moreover, the Ki on NET [3] was 1.58 nM. Further, the Ki at rat native NET was 2 nM. The IC50 at human recombinant DAT was 158 nM. In addition, the “selectivity for inhibition of NET over SERT” value at NET [4] (human transporters, neurotransmitter uptake) amounted to 4 fold. The “inhibitory selectivity for NE” value against NET [4] (uptake in vitro, human and rat transporters) is 4- to 10 fold. On rat native DAT, the IC50 is 126 nM. Also, in the series “in vivo”, the “K01, first-order absorption rate constant” value is reported as 0.777 (108) hr^-1; the V/F is given as 54.8 (66) L/kg; the k el is 8.86e-05 s⁻¹. Further, at SERT (rat spinal cord, oral 0.3-60mg/kg), the “Emax (% Occupancy), SERT” value is 79.0 (53) % Occupancy. Further, on SERT (rat spinal cord, plasma EC50), the EC50 is 158 nM. The “keo, SERT” value at SERT (rat, equilibration rate constant plasma to effect compartment) was 11.0 (86) hr^-1. Moreover, in the series on P-gp, the P-gp substrate status result was “non-P-gp substrate”.
